The target of test [1] is T1, Aurora kinase A (Homo sapiens) (UniProt O14965).
T1 sequence (whole entry): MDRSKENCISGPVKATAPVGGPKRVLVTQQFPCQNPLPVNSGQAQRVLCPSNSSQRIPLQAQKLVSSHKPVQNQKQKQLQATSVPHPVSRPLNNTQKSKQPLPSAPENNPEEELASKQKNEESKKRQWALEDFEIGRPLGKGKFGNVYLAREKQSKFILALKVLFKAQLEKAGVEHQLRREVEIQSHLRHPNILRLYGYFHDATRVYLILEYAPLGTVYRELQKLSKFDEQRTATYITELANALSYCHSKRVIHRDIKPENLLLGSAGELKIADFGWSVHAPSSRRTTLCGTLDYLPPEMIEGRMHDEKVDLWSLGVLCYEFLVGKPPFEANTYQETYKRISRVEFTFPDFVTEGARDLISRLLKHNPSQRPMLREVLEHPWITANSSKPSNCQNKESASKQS
As to the kind of experiment: Inhibition of AurA (unknown origin) at 0.49 uM relative to control.

For test [2], the target named is Tyrosine-protein kinase HCK (Homo sapiens) (UniProt P08631). The test is described as follows: Inhibition of Hck (unknown origin) at 0.49 uM relative to control.
The target of test [3] is Protein kinase C alpha type (Homo sapiens) (UniProt P17252). As to the kind of experiment: Inhibition of PKC-alpha (unknown origin) at 0.49 uM relative to control.
Test [4] addresses Protein kinase C eta type (Homo sapiens) (UniProt P24723). As to the kind of experiment: Inhibition of PKC-eta (unknown origin) at 0.49 uM relative to control.
Test [5] addresses Ephrin type-A receptor 3 (Homo sapiens) (UniProt P29320). The test is described as follows: Inhibition of EPHA3 (unknown origin) at 0.49 uM relative to control.
For test [6], the target named is MAP kinase-activated protein kinase 2 (Homo sapiens) (UniProt P49137). The test is described as follows: Inhibition of MAPKAPK2 (unknown origin) at 0.49 uM relative to control.
Test [7] has as its target Ephrin type-B receptor 4 (Homo sapiens) (UniProt P54760). As to the kind of experiment: Inhibition of EPHB4 (unknown origin) at 0.45 uM relative to control.
Test [8] concerns the target NUAK family SNF1-like kinase 1 (Homo sapiens) (UniProt O60285). As to the kind of experiment: Inhibition of NuaK1 (unknown origin) at 0.45 uM relative to control.
Test [9] has as its target Serine/threonine-protein kinase Chk2 (Homo sapiens) (UniProt O96017). As to the kind of experiment: Inhibition of CHK2 (unknown origin) at 0.45 uM relative to control.
Test [10] deals with Fibroblast growth factor receptor 4 (Homo sapiens), P22455 [V550L]. As to the kind of experiment: Inhibition of FGFR4 V550L mutant (unknown origin) at 0.45 uM relative to control.
Test [11] concerns Epidermal growth factor receptor (Homo sapiens), P00533 [L858R,T790M]. The test is described as follows: Inhibition of EGFR T790M/L858R double mutant (unknown origin) at 0.45 uM relative to control.
The target of test [12] is Cyclin-dependent kinase 1/cyclin B1 (Homo sapiens) (UniProt P06493+P14635). The test is described as follows: Inhibition of CDK1/CyclinB (unknown origin) at 0.45 uM relative to control. Format: protein-complex assay.
The target in test [13] is Ephrin type-A receptor 3 (Homo sapiens) (UniProt P29320). The test is described as follows: Inhibition of EPHA3 (unknown origin) at 0.45 uM relative to control.
Test [14] concerns the target Ephrin type-A receptor 2 (Homo sapiens) (UniProt P29317). The test is described as follows: Inhibition of EPHA2 (unknown origin) at 0.45 uM relative to control.
In test [15] the target is Serine/threonine-protein kinase pim-1 (Homo sapiens) (UniProt P11309). The test is described as follows: Inhibition of PIM1 (unknown origin) at 0.45 uM relative to control.
Test [16] concerns the target Tyrosine-protein kinase Fyn (Homo sapiens) (UniProt P06241). As to the kind of experiment: Inhibition of FYN (unknown origin) at 0.45 uM relative to control.
For test [17], the target named is T2, MAP kinase-activated protein kinase 5 (Homo sapiens) (UniProt Q8IW41).
T2 sequence (whole entry): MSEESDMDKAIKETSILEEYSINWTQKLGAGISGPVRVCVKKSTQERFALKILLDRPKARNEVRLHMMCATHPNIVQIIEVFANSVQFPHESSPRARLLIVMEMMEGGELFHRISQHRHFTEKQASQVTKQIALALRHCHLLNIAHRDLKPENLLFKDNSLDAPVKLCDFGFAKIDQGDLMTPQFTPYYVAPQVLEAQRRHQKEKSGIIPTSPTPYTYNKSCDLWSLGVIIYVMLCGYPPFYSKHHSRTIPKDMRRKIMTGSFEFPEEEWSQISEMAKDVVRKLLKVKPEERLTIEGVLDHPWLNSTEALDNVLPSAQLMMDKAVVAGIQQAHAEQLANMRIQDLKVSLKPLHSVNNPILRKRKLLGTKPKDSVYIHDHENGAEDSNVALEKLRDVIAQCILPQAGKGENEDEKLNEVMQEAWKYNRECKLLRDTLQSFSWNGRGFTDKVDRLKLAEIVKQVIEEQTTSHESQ
As to the kind of experiment: Inhibition of PRAK (unknown origin) at 0.45 uM relative to control.

Test [18] deals with Proto-oncogene tyrosine-protein kinase Src (Homo sapiens) (UniProt P12931). As to the kind of experiment: Inhibition of SRC (unknown origin) at 0.078 uM relative to control.
The target in test [19] is Fibroblast growth factor receptor 1 (Homo sapiens) (UniProt P11362). The test is described as follows: Inhibition of FGFR1 (unknown origin) at 0.078 uM relative to control.
For test [20], the target named is Dual specificity tyrosine-phosphorylation-regulated kinase 1A (Homo sapiens) (UniProt Q13627). As to the kind of experiment: Inhibition of DYRK1a (unknown origin) at 0.078 uM relative to control.
A further test is filed under the species Homo sapiens. As to the kind of experiment: Inhibition of p70S6K (unknown origin) at 0.078 uM relative to control.
For test [21], the target named is T3, Protein kinase C zeta type (Homo sapiens) (UniProt Q05513).
T3 sequence (whole entry): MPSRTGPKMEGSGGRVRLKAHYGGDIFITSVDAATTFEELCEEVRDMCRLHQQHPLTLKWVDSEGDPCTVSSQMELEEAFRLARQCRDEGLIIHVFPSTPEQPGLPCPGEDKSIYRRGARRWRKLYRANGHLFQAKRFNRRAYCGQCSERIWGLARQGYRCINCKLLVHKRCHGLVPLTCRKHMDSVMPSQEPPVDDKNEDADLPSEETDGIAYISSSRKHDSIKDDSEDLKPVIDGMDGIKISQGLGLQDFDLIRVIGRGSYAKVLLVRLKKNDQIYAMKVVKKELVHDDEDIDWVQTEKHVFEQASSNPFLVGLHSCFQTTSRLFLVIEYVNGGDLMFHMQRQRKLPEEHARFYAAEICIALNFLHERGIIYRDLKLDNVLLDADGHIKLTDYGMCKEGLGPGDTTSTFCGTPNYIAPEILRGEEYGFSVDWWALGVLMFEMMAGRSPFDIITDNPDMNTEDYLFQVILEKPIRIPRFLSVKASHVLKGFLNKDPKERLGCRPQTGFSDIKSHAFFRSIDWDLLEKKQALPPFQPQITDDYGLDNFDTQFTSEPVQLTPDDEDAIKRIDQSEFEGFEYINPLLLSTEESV
As to the kind of experiment: Inhibition of PKC-zeta (unknown origin) at 0.078 uM relative to control.

A word on the inhibition: it is the drop in the measured response relative to a control, in per cent. Take `Cc1[nH]nc(C2CC2)c1-c1ccc2c(NC(=O)C3CC3)noc2c1`: the inhibition worked out at 5.7% in test [1]; 3.3% in [2]; 2% in [3]; 7% in [4]; 0.7% in [5]; 2.7% in test [6].

`Cc1n[nH]c(C)c1-c1ccc2c(NC(=O)c3ccc(N4CCN(C)CC4)cc3)n[nH]c2c1`: the inhibition came out at 8% in test [7]; 13% in test [8]; 3% in [9]; 2.7% in test [10]; 1.3% in test [11]; 5.3% in test [12]. Further, the inhibition in test [13] was 5%; in [14] it was 8%; in test [15] it was 4%; in [16], 46%; in test [17], -1.7%.

Turning to `COC(=O)Nc1noc2cc(-c3c(-c4ccccn4)n[nH]c3C)ccc12`, the inhibition in [18] is 2.3%; in test [19], -2.7%; in test [20] it was 9.7%; in the test filed under Homo sapiens it was 4%; in test [21], 2.7%.

The values above are taken from ChEMBL document CHEMBL4052759, “Discovery of DS79182026: A potent orally active hepcidin production inhibitor” (Bioorg Med Chem Lett, 2017).
